Assays:
[1] = biological target: Mast/stem cell growth factor receptor Kit (Homo sapiens, UniProt P10721); assay: Binding affinity to human KIT by KINOMEscan assay
[2] = biological target: Tyrosine-protein kinase Lck (Homo sapiens, UniProt P06239); assay: Binding affinity to human LCK by KINOMEscan assay
[3] = biological target: MAP kinase-interacting serine/threonine-protein kinase 2 (Homo sapiens, UniProt Q9HBH9); assay: Binding affinity to human MKNK2 by KINOMEscan assay
Cytochrome P450 1A2 = biological target: T1, Cytochrome P450 1A2 (Homo sapiens, UniProt P05177); assay: Inhibition of CYP1A2 in human liver microsomes assessed as Phenacetin O-deethylation reaction measured after 30 mins by LC/MS/MS analysis; format: ADME, Microsome
T1 sequence (P05177 whole entry): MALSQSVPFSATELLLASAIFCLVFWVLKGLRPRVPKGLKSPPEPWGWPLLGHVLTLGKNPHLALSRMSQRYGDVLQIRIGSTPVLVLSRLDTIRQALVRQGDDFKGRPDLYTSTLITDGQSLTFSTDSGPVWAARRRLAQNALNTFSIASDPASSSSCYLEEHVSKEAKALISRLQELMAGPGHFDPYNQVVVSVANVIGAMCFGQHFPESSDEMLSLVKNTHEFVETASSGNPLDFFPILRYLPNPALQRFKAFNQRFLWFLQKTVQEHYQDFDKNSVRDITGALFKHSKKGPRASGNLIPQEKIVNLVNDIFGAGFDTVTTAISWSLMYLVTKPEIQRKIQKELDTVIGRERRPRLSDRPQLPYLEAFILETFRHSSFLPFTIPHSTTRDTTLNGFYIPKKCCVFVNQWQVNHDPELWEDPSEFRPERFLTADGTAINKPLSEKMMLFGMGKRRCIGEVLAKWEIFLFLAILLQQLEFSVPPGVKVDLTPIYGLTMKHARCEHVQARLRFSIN

Cytochrome P450 3A4 = Cytochrome P450 3A4 (Homo sapiens, UniProt P08684); assay: Inhibition of CYP3A4 in human liver microsomes assessed as midazolam 1-hydroxylation reaction measured after 30 mins by LC/MS/MS analysis; format: ADME, Microsome
Chain of Cytochrome P450 3A4 (P08684 whole entry): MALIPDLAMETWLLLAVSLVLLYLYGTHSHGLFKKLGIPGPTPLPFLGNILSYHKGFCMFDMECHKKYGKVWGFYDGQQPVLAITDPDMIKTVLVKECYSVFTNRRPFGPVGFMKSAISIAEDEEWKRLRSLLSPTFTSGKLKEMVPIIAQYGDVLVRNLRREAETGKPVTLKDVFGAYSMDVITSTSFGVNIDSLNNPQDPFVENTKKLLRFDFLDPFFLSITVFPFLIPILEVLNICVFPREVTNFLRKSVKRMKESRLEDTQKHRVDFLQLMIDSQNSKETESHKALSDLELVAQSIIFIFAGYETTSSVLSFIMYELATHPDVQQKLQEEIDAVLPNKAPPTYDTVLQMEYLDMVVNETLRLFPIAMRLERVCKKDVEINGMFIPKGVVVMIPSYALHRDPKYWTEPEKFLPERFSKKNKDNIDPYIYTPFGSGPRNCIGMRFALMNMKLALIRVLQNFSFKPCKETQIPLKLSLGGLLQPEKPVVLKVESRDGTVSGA

[4] = biological target: Voltage-gated inwardly rectifying potassium channel KCNH2 (Homo sapiens, UniProt Q12809); assay: Inhibition of hERG expressed in HEK cells assessed as K+ tail current by whole-cell electrophysiology; format: toxicity, cell-based
Chain of Voltage-gated inwardly rectifying potassium channel KCNH2 (Q12809 whole entry): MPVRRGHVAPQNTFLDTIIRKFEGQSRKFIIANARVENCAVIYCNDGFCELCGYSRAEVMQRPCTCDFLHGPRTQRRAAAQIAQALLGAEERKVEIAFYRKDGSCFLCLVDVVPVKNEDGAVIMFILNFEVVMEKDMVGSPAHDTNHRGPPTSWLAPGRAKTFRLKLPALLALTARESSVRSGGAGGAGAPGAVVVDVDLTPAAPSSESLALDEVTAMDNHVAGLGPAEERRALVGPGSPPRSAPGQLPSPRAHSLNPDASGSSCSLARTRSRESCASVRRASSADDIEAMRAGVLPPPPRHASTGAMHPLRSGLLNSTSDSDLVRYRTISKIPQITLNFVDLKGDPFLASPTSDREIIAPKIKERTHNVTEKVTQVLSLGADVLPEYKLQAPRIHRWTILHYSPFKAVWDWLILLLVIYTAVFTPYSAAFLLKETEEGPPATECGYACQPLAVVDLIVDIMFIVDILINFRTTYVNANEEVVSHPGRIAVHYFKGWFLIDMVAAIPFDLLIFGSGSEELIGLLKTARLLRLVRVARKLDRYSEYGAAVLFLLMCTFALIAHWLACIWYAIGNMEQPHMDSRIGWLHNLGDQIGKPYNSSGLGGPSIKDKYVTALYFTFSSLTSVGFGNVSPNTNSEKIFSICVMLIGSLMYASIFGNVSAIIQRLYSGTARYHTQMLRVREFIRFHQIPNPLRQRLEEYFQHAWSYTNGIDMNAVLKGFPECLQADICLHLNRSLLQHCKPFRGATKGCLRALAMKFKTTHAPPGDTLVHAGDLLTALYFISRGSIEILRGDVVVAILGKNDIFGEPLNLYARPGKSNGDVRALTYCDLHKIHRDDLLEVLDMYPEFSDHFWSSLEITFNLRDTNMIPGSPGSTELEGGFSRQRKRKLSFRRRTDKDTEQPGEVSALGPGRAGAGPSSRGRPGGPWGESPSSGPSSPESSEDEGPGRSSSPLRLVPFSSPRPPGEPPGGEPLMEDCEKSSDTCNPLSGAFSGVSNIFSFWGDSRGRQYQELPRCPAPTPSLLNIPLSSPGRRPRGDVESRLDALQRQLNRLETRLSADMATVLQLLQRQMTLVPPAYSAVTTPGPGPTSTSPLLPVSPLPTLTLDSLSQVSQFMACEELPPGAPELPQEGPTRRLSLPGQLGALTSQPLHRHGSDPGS

[5] = biological target: Platelet-derived growth factor receptor alpha (Homo sapiens, UniProt P16234)
Chain of Platelet-derived growth factor receptor alpha (P16234 whole entry): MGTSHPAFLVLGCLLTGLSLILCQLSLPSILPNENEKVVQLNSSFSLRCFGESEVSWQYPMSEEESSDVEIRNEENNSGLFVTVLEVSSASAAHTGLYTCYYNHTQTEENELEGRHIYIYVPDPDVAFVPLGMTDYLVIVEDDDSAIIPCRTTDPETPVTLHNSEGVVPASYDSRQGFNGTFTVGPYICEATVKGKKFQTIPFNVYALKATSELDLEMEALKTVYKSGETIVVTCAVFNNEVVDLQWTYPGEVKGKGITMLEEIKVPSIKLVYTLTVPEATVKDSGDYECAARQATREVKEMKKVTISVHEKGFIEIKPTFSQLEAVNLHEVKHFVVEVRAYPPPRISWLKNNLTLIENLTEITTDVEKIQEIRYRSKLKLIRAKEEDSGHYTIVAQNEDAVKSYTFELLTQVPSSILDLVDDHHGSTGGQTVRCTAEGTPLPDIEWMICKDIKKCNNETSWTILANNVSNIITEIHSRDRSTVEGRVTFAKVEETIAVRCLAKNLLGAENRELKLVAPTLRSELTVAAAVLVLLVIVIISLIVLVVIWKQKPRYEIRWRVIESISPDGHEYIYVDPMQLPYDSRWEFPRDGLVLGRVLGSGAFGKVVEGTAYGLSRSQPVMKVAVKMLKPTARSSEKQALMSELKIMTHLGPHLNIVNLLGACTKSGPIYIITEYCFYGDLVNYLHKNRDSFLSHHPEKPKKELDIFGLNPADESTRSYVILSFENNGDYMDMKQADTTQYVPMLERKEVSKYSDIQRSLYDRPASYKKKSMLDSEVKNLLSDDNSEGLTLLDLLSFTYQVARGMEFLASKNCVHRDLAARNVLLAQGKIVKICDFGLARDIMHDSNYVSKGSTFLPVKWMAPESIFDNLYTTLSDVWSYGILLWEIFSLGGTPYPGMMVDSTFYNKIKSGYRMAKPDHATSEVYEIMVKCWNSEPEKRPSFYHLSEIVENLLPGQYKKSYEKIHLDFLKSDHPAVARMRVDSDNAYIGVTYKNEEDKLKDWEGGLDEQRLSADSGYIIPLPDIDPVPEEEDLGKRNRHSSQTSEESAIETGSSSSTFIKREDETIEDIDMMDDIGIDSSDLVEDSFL
Description: Binding affinity to human PDGFRalpha by KINOMEscan assay

[6] = biological target: T2, Serine/threonine-protein kinase ULK1 (Homo sapiens, UniProt O75385)
T2 sequence (O75385 whole entry): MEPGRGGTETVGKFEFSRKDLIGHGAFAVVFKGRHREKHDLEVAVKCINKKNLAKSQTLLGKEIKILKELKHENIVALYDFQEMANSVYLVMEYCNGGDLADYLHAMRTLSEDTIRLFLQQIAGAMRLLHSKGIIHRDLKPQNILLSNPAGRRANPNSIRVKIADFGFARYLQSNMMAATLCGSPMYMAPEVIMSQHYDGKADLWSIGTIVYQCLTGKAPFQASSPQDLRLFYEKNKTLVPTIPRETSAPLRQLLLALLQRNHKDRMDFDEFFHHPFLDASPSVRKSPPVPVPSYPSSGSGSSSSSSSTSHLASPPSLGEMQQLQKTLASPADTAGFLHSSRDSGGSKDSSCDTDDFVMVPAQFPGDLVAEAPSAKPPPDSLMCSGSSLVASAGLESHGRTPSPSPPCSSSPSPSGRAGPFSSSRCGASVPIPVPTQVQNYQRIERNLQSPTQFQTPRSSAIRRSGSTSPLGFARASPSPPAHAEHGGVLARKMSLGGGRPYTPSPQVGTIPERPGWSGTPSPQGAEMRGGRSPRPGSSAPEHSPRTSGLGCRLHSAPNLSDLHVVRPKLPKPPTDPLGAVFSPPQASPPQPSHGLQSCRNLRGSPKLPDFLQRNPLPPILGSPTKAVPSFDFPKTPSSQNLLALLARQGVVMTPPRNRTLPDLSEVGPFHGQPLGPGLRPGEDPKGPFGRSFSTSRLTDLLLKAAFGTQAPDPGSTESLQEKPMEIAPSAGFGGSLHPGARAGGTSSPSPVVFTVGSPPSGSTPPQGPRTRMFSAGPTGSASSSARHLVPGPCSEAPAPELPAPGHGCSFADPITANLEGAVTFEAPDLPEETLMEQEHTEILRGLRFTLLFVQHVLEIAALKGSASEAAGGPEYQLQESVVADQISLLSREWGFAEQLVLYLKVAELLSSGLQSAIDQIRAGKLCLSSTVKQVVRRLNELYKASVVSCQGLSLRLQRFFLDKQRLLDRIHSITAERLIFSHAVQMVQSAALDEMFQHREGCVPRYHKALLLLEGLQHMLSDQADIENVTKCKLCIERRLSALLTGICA
Description: Binding affinity to human ULK1 by KINOMEscan assay

[7] = biological target: T3, Serine/threonine-protein kinase ULK2 (Homo sapiens, UniProt Q8IYT8)
T3 sequence (Q8IYT8 whole entry): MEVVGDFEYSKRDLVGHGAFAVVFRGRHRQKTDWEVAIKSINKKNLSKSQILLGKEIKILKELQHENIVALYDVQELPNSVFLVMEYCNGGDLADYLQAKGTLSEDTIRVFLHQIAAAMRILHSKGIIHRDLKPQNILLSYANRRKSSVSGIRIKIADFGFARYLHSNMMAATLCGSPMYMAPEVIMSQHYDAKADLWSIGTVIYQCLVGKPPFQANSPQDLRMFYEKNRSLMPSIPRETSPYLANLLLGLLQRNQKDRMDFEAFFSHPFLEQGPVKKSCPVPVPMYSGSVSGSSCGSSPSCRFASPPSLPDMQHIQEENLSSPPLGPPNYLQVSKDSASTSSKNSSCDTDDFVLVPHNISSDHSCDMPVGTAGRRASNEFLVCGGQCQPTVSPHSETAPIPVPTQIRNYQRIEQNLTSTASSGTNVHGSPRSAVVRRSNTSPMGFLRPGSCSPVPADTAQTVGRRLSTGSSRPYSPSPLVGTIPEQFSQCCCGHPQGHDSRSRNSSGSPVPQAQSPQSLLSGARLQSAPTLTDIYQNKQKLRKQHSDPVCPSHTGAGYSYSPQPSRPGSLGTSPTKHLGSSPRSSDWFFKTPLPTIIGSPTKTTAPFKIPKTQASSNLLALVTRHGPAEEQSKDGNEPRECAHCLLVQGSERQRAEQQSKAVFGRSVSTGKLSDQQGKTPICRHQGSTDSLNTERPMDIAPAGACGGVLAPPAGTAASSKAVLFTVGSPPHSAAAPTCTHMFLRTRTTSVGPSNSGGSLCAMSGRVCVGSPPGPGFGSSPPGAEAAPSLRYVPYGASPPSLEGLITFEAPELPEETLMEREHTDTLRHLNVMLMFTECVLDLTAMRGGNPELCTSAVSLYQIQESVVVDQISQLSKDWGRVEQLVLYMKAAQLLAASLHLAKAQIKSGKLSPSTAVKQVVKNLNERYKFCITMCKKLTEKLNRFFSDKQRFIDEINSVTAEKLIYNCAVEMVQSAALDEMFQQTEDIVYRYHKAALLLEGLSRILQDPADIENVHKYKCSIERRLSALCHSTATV
Description: Binding affinity to human ULK2 by KINOMEscan assay

Chain of Mast/stem cell growth factor receptor Kit (P10721 whole entry): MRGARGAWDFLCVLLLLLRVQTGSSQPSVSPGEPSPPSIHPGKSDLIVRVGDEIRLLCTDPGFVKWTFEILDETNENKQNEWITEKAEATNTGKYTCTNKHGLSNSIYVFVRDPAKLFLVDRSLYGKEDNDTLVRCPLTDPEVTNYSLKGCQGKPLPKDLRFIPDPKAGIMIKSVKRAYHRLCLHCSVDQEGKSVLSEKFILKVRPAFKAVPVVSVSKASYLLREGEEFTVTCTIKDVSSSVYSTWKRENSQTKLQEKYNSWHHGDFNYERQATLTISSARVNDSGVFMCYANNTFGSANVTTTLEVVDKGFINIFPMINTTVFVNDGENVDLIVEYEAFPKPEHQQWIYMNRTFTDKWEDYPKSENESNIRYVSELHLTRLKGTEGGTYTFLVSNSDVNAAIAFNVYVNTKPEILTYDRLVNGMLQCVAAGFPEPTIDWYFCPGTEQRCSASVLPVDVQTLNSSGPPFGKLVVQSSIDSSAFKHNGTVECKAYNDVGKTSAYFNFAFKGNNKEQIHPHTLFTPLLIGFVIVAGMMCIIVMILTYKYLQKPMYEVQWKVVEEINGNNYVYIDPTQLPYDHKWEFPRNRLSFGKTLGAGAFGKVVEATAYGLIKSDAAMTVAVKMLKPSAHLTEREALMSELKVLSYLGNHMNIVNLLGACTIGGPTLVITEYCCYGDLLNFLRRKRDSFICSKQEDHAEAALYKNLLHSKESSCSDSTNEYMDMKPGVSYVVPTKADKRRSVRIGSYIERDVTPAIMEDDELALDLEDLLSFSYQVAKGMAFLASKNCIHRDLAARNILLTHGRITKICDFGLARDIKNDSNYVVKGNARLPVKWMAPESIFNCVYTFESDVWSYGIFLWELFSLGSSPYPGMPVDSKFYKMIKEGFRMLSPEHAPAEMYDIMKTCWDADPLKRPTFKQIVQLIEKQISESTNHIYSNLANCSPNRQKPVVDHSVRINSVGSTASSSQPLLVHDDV
Chain of MAP kinase-interacting serine/threonine-protein kinase 2 (Q9HBH9 whole entry): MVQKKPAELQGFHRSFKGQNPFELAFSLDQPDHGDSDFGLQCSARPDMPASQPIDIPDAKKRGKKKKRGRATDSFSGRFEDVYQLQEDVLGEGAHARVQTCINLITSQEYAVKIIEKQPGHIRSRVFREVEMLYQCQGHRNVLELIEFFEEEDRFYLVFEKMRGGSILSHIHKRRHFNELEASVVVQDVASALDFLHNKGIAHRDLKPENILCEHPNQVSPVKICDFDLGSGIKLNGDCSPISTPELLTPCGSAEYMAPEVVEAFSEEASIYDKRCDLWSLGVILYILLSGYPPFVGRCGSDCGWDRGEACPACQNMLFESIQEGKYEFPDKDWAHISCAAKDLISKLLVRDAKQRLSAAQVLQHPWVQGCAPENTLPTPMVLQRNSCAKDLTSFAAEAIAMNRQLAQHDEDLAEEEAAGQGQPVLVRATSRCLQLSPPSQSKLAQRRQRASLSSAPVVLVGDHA
Chain of Tyrosine-protein kinase Lck (P06239 whole entry): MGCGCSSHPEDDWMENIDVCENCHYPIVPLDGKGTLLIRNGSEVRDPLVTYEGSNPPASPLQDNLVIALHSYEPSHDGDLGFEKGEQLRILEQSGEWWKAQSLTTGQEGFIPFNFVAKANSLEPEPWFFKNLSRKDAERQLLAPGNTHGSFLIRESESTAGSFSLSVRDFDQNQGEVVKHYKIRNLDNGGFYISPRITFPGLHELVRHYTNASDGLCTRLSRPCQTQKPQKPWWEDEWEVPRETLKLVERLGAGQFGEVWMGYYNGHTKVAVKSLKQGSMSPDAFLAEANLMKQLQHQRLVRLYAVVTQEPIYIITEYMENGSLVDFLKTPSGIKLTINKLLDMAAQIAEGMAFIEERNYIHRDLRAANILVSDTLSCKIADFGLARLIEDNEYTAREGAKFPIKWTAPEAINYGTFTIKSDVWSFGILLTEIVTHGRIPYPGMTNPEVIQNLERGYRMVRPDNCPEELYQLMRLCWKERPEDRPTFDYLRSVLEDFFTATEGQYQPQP

COc1nc(-c2cc(-c3cnn(C)c3)cnc2N)cc2c1C(=O)N(CC(F)(F)F)CC2
IC50 [1]: 594 nM
IC50 [2]: 326 nM
IC50 [3]: 15 nM
IC50 (Cytochrome P450 1A2): > 50000 nM
IC50 (Cytochrome P450 3A4): > 50000 nM
inhibition (INH) [4]: 34%
IC50 [5]: 31 nM
IC50 [6]: 586 nM
IC50 [7]: 2080 nM

Source: ChEMBL document CHEMBL6109120, “Discovery of Novel SIK2/3 Inhibitors for the Potential Treatment of MEF2C+ Acute Myeloid Leukemia (AML)” (J Med Chem, 2025)
